This is an account of results in ChEMBL document CHEMBL5113380, “Functionalized quinoxalinones as privileged structures with broad-ranging pharmacological activities” (Eur J Med Chem, 2022).

Values after ≈ are worked out from the molar mass of the structure shown. Bounds are passed on as bounds.

The test system of one data set is Salmonella typhimurium. Briefly: Antibacterial activity against Salmonella typhimurium assessed as diameter zone of inhibition. In kind it is functional, Salmonella enterica subsp. enterica serovar Typhimurium.
For data set [1], the system named is Streptococcus pneumoniae. Put plainly: Antibacterial activity against Streptococcus pneumoniae assessed as diameter zone of inhibition. In kind it is functional.
The test system of the next data set is Bacillus subtilis. Briefly: Antibacterial activity against Bacillus subtilis assessed as diameter zone of inhibition. The format is functional.
In data set [2] the test system is Escherichia coli. Put plainly: Antibacterial activity against Escherichia coli assessed as diameter zone of inhibition. The format is functional.
Data set [3] concerns Staphylococcus aureus. Briefly: Antibacterial activity against Staphylococcus aureus assessed as diameter zone of inhibition. In kind it is functional.
Data set [4] relates to Pseudomonas aeruginosa. Put plainly: Antibacterial activity against Pseudomonas aeruginosa assessed as diameter zone of inhibition. In kind it is functional.
Data set [5] deals with Glutamate receptor ionotropic, kainate 1 (Homo sapiens, UniProt P39086). Briefly: Binding affinity to GluK1 receptor (unknown origin).
Glutamate receptor ionotropic, kainate 1, sequence (P39086 whole entry): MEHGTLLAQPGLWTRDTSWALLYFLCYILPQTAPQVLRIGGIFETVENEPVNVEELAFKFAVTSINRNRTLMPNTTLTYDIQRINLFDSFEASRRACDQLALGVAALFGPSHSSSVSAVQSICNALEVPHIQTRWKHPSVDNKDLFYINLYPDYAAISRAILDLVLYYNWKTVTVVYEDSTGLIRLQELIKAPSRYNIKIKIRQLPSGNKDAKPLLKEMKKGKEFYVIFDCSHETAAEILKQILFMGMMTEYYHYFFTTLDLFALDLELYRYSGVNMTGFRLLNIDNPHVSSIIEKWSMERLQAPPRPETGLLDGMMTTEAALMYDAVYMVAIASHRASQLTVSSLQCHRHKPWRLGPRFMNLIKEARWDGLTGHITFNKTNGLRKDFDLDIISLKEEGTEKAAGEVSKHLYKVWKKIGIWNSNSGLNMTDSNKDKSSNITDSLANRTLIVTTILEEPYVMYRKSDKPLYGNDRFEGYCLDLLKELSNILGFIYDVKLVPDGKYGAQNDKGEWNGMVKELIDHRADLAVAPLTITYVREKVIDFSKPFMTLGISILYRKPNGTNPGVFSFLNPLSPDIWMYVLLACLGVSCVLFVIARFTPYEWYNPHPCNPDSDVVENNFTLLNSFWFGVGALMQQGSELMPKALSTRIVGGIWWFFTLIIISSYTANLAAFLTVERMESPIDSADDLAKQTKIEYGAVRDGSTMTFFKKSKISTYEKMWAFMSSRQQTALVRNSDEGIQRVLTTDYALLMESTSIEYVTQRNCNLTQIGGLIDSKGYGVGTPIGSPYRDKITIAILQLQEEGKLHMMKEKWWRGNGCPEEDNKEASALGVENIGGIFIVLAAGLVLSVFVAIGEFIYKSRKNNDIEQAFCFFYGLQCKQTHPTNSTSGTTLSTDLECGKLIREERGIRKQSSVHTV
Data set [6] deals with Glutamate receptor ionotropic, kainate 2 (Homo sapiens, UniProt Q13002). Briefly: Binding affinity to GluK2 receptor (unknown origin).
Glutamate receptor ionotropic, kainate 2, sequence (Q13002 whole entry): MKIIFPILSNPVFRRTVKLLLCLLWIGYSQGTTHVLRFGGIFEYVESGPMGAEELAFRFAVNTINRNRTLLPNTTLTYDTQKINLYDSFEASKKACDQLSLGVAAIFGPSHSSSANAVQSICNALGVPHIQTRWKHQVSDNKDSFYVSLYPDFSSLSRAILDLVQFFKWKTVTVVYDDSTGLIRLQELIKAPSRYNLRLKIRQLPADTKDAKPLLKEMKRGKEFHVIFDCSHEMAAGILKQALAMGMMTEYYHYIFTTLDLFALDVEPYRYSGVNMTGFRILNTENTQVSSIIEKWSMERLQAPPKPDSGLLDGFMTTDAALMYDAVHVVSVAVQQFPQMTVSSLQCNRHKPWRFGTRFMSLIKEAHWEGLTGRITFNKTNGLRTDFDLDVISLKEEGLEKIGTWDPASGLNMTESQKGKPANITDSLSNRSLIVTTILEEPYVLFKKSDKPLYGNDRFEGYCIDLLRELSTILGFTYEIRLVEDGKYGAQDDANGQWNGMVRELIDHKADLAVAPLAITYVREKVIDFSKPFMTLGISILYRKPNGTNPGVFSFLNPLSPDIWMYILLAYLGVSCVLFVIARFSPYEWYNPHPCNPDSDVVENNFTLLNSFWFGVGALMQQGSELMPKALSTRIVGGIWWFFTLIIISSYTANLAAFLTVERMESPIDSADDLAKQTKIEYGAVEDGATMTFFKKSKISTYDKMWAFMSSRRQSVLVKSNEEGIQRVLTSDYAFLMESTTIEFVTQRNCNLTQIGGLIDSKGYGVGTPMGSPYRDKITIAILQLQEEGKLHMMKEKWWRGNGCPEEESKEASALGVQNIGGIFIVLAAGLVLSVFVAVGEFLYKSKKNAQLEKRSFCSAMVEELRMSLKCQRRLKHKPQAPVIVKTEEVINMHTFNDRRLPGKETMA
For data set [7], the target named is T1, Glutamate receptor ionotropic, kainate 5 (Homo sapiens, UniProt Q16478).
T1 sequence (Q16478 whole entry): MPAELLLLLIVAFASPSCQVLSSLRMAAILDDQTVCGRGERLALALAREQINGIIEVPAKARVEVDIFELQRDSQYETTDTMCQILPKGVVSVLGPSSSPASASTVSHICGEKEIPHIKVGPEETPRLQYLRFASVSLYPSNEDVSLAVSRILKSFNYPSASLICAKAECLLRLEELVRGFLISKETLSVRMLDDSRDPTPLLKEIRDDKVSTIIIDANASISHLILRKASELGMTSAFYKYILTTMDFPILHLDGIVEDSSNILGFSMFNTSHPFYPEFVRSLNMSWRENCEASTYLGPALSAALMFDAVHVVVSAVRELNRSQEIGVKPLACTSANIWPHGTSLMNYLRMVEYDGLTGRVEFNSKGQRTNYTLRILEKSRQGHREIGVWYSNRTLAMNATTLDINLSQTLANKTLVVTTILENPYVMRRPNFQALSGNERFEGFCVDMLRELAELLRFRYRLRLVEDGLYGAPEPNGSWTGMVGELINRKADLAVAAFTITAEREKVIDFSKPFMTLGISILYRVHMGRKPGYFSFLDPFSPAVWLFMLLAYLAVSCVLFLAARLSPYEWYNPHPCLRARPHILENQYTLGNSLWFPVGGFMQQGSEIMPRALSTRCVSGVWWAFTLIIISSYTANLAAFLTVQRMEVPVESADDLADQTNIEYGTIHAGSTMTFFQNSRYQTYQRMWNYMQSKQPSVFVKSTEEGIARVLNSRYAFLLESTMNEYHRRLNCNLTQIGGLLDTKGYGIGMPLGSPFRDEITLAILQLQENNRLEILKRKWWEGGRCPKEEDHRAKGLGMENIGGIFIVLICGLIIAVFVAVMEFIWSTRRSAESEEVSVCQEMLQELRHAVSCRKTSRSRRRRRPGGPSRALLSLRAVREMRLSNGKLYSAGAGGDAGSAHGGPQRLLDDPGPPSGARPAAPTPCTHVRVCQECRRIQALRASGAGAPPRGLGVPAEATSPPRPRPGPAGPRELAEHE
Put plainly: Binding affinity to GluK5 receptor (unknown origin).

Data set [8] deals with T2, Glutamate receptor ionotropic AMPA (Homo sapiens, UniProt P42261+P42262+P42263+P48058). Briefly: Binding affinity to AMPA receptor (unknown origin). In kind it is protein-complex assay.
The next data set has as its target Glutamate receptor 2 (Homo sapiens, UniProt P42262). Put plainly: Binding affinity to GluA2 receptor (unknown origin).
In another data set the test system is Toxoplasma gondii. Put plainly: Anti-tachyzoite activity against Toxoplasma gondii at 100 uM. In kind it is functional, type III.
In data set [9] the test system is Staphylococcus aureus. Put plainly: Antibacterial activity against Staphylococcus aureus. In kind it is functional.
A short description of data set [10]: Dissociation constant, pKa of the compound. The format is physicochemical.
Data set [11] relates to Escherichia coli. Put plainly: Antibacterial activity against Escherichia coli. The format is functional.
A further data set has as its system Klebsiella pneumoniae. Put plainly: Antibacterial activity against Klebsiella pneumoniae. In kind it is functional.
Data set [12] can be described thus: Inhibition of Escherichia coli topoisomerase 4.
Data set [13] in a line: Lipophilicity, logD of compound. In kind it is physicochemical. To be noted: octanol/water.
Data set [14] addresses Voltage-gated inwardly rectifying potassium channel KCNH2 (Homo sapiens, UniProt Q12809). Briefly: Inhibition of hERG. The format is toxicity. (In general: Block of hERG is tested as a sign of cardiac risk.)
Data set [15] has as its system Pseudomonas aeruginosa. Put plainly: Antibacterial activity against Pseudomonas aeruginosa. The format is functional.
In data set [16] the target is Bromodomain-containing protein 4 (Homo sapiens, UniProt O60885). Briefly: Inhibition of BRD4 (unknown origin) using histone-H4 as substrate incubated for 15 mins and measured after 1 hr by AlphaScreen assay. (In general: Alpha assays give light when donor and acceptor beads are brought close together.)
A short description of data set [17]: Cytotoxicity against mock-infected human MT4 cells. In kind it is toxicity, cell-based.
Data set [18] has as its target T2, Glutamate receptor ionotropic AMPA. Put plainly: Displacement of [3H]AMPA from AMPA receptor (unknown origin). In kind it is protein-complex assay. A general note: Loss of bound radioactivity is the signal in a displacement assay; it reports binding, not function.
The target is the same in data set [19]. Briefly: Displacement of [3H]kainic acid from AMPA receptor (unknown origin). The format is protein-complex assay.
For data set [20] the target is unchanged. Put plainly: Antagonist activity at AMPA receptor (unknown origin) assessed as AMPA-induced depolarizations. In kind it is protein-complex assay.
Data set [21] is described as follows: Displacement of [3H]glycine from AMPA receptor (unknown origin). In kind it is protein-complex assay, Homo sapiens.
The target in data set [22] is Glutamate [NMDA] receptor. Put plainly: Antagonist activity at NMDA receptor (unknown origin) assessed as NMDA-induced depolarizations. The format is protein-complex assay, Homo sapiens.
Data set [23] deals with T2, Glutamate receptor ionotropic AMPA. Briefly: Displacement of [3H]CNQX from AMPA receptor (unknown origin). In kind it is protein-complex assay.
Data set [24] deals with Glutamate [NMDA] receptor. Put plainly: Displacement of [3H]MK-801 from NMDA receptor (unknown origin). In kind it is protein-complex assay, Homo sapiens.
The target in a further data set is Trypsin (Homo sapiens, UniProt P07477+P07478+P35030). Briefly: Inhibition of trypsin (unknown origin). In kind it is protein assay.
The target in data set [25] is Glutamate [NMDA] receptor. Put plainly: Displacement of [3H]MDL from NMDA receptor (unknown origin). In kind it is protein-complex assay, Homo sapiens.
Data set [26] is described as follows: Displacement of [3H]AMPA from NMDA receptor (unknown origin). In kind it is protein-complex assay, Homo sapiens.
The subject of data set [27] is Streptococcus pneumoniae. Put plainly: Antibacterial activity against Streptococcus pneumoniae. In kind it is functional.
Data set [28] has as its system Escherichia coli. Briefly: Antibacterial activity against Escherichia coli W3110. In kind it is functional.

What is called Ki is the equilibrium dissociation constant of an inhibitor or competing ligand from its target. A high value points to weaker binding. The MIC is the lowest concentration found to suppress growth. A high value points to weaker potency. In general, pKa refers to the pH at which an ionisable group is half protonated. Low values mean a group that gives up its proton readily, high ones a group that holds its proton tightly. In general, MIC90 refers to the lowest concentration that inhibits either 90% of growth or 90% of the strains tested, depending on the study. A low value points to higher susceptibility. One may read the IC50 as the midpoint of a concentration-inhibition curve. Broadly, the logD is lipophilicity at a set pH, counting ionised and neutral species. A higher logD goes with a more lipophilic compound. By CC50 is commonly meant the concentration at which the toxic effect on the cells reaches its halfway point. Read a high CC50 as lower toxicity to the cells. The term MBC denotes the lowest tested concentration that kills the bacteria rather than only halting them. Low values mean more potent killing, high ones less potent killing.

Glutamate receptor 2, sequence (P42262 whole entry): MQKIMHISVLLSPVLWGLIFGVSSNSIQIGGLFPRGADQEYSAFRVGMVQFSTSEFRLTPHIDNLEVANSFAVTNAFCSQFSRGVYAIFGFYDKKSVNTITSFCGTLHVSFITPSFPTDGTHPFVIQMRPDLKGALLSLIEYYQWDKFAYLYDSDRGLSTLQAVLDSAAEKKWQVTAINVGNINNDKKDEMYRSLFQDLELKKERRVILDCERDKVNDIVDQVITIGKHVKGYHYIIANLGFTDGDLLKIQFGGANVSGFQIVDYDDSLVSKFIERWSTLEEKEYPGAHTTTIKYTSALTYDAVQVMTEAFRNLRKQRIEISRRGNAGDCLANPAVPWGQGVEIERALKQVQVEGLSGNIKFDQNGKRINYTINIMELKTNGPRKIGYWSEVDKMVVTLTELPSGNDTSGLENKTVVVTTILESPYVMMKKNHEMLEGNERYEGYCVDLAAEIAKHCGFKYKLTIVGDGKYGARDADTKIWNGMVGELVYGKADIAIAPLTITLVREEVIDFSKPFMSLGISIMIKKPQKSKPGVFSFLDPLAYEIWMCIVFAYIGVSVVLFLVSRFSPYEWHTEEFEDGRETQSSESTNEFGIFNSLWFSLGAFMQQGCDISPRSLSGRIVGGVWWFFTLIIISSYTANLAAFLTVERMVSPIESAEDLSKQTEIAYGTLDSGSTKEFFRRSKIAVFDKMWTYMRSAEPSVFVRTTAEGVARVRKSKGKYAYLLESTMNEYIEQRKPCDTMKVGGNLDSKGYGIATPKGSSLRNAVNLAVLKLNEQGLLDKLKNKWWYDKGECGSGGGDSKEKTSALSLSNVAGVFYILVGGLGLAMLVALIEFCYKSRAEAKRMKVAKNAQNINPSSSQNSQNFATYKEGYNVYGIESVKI
Voltage-gated inwardly rectifying potassium channel KCNH2, sequence (Q12809 whole entry): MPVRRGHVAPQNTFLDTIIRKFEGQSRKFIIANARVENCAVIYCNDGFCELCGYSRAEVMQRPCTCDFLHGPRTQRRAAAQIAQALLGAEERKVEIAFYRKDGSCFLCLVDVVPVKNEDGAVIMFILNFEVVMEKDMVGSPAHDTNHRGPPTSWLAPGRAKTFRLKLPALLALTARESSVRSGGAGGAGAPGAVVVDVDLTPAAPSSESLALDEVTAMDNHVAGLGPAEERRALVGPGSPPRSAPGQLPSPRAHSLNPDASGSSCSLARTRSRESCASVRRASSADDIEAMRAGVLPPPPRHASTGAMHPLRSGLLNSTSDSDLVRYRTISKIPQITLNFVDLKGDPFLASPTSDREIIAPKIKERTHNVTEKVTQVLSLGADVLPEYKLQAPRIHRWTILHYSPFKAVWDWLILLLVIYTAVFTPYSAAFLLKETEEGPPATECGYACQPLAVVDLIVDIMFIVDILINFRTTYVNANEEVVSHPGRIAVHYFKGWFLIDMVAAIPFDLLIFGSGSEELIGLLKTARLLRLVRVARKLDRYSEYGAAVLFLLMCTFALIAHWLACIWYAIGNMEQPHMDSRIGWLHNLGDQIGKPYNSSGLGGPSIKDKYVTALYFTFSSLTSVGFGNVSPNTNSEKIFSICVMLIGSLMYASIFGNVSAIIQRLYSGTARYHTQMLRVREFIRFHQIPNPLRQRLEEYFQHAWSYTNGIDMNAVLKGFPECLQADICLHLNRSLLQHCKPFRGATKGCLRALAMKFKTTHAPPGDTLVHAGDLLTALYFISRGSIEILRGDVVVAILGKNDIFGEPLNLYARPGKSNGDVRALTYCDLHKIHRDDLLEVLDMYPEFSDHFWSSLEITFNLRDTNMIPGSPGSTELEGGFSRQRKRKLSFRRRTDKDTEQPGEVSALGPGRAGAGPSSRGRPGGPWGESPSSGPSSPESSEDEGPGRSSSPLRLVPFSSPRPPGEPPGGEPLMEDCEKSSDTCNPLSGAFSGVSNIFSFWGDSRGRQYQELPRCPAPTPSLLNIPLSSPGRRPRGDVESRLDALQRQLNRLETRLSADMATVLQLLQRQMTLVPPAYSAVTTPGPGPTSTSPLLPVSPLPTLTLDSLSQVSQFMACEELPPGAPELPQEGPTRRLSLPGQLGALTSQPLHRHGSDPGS

As for `Cc1ccccc1NCC(=O)N1CC(=O)Nc2ccccc21`, the “diameter of the inhibition zone (DIZ)” value in the data set on Salmonella typhimurium was 9 mm; in the data set with Streptococcus pneumoniae [1] it was 10 mm; with Bacillus subtilis, 15 mm; with Escherichia coli [2], 15 mm; in the data set on Staphylococcus aureus [3], 15 mm; in the data set on Pseudomonas aeruginosa [4] it was 12 mm.

`O=C(Nn1c(=O)c(=O)[nH]c2cc(C(F)(F)F)c(F)cc21)c1ccccc1O`: the inhibition constant Ki worked out at 1.12 µM in data set [5]; 0.908 µM in data set [6]; 26.4 µM in [7]; 0.96 µM in data set [8]; 4.12 µM on Glutamate receptor 2.

With `O=C1CN(CCCCCN2CCCCC2)c2ccc([N+](=O)[O-])cc2N1`, in the data set on Toxoplasma gondii, the Activity was found to be 92%.

As to `COc1cnc2ccc(=O)n(C[C@@H](N)[C@H]3CC[C@H](NCc4ccc5c(n4)NC(=O)CO5)CC3)c2c1`, the minimal inhibitory concentration (MIC) is 8 µg/mL against Staphylococcus aureus [9], 0.5 µg/mL (≈ 1.04 µM) in the data set on Escherichia coli [11], 8 µg/mL (≈ 16.7 µM) against Klebsiella pneumoniae and 1 µg/mL (≈ 2.09 µM) in the data set with Pseudomonas aeruginosa [15]. Moreover, in [10], the pKa was found to be 7.66. The MIC90 turned out to be 0.5 µg/mL (≈ 1.04 µM) in the data set with Escherichia coli [11] and 4 µg/mL (≈ 8.36 µM) in the data set with Pseudomonas aeruginosa [15]. Besides, the IC50 in data set [12] is 0.002 µM; in [14] it was over 333 µM. Besides, in data set [13], the logD is -0.86.

Take `O=C(Nn1c(=O)c(=O)[nH]c2cc(C#Cc3ccccc3)ccc21)c1ccccc1`: the Ki in data set [5] was over 100 µM; in [6], 100 µM; in [7], over 100 µM; at Glutamate receptor 2, 23.6 µM.

Consider `N[C@H](Cn1c(=O)cnc2ccc(F)cc21)[C@H]1CC[C@H](NCc2ncc3c(n2)NC(=O)CO3)CC1`, for which the minimum inhibitory concentration (MIC) was 1 µg/mL against Staphylococcus aureus [9], under 0.06 µg/mL in the data set on Escherichia coli [11] and 0.5 µg/mL (≈ 1.07 µM) in the data set on Pseudomonas aeruginosa [15]. For the same compound, the pKa in [10] came to 7.28. Also, the MIC90 was 1 µg/mL (≈ 2.14 µM) against Escherichia coli [11], 16 µg/mL (≈ 34.2 µM) with Klebsiella pneumoniae and 4 µg/mL (≈ 8.56 µM) in the data set on Pseudomonas aeruginosa [15]. In addition, the IC50 in data set [12] was 0.003 µM; in [14], over 333 µM. Further, in [13], the logD is -0.32.

In the case of `Cc1noc(C)c1-c1ccc2c(c1)C(Cc1ccccc1)NC(=O)N2C` (stereo not given), in data set [16], the IC50 was determined as 0.032 µM.

The compound `COc1ccc2[nH]c(=O)c(CBr)nc2c1Cl` displayed a CC50 in data set [17] of 21 µM.

For the compound `O=C(O)c1nc2c(=O)[nH]c3cc(Cl)c(-n4cnnc4)cc3n2n1` [TQX-173], the Ki is 0.14 µM in [18] and 33.5 µM in data set [21]. The IC50 in data set [19] stood at 11.6 µM; in data set [20], 2.3 µM; in data set [22], 46 µM.

On to `O=c1[nH]c2cc([N+](=O)[O-])c([N+](=O)[O-])cc2[nH]c1=O` [DNQX], for which the IC50 in data set [23] turned out to be 1.4 µM; in [18], 0.93 µM; in data set [19], 2.2 µM.

As to `O=C(O)c1nc2c(O)nc3cc(Cl)c(-n4cccc4)cc3n2n1`, the IC50 was 11.7 µM in data set [24], 36 µM in data set [19], 3 µM in [20] and 52 µM in data set [22]. For the same compound, the Ki in data set [18] and in data set [21] was 0.86 µM throughout.

Turning to `Cn1c(=O)c(Cc2ccc(C(=N)N)cc2)nc2cc(C3(N(C(=O)CC(=O)O)C4CCCC4)CC3)ccc21`, the IC50 against Trypsin is 0.55 µM.

`O=C(Cc1ccsc1)NCc1cc(Br)cc2nc(O)c(O)nc12`: the figures for the IC50 in data set [25] and in data set [26] were 0.01 µM and 11.3 µM, respectively.

In the data set on Staphylococcus aureus [9], `O=c1[nH]c2ccc(Cl)c(Cl)c2nc1C(F)(F)F` returned an MBC of 200 µM (≈ 56.6 µg/mL) and an MIC of 33 µM. Also, in data set [17], the CC50 came out at 108 µM.

Take `COc1ccc2ncc(=O)n(CCN3CCC(NCc4ccc5c(n4)NC(=O)CO5)CC3)c2c1`: the MIC against Staphylococcus aureus [9] turned out to be 0.03 µg/mL; in the data set on Streptococcus pneumoniae [27], 0.08 µg/mL (≈ 0.172 µM); in the data set with Escherichia coli [28], 0.13 µg/mL (≈ 0.28 µM); with Pseudomonas aeruginosa [15] it was 1 µg/mL (≈ 2.15 µM). In data set [10], the pKa came out at 5.56. Also, half-maximal inhibition in data set [12] (IC50) required 0.0022 µM. Further, the logD in [13] was determined as 0.6.
